# Measured values as given in patent US9029378B2, “Substituted bicyclic aromatic carboxamide and urea compounds as vanilloid receptor ligands” (Gruenenthal GmbH, priority 2011, dated 2015).
# Biological target: T1, vanilloid receptor 1 (VR1/TRPV1 receptor) (Homo sapiens, UniProt Q8NER1)
# T1 construct: expressed in transfected cells; host or cells: CHO K1
# Test: Functional testing on the vanilloid receptor 1 (FLIPR Ca2+ influx assay, capsaicin)
# Assay type: cell-based, human being
# Design: key to (f) (human being) Cap: effect in words (agonist / no effect): AG=agonist; NE=no effect
# Settings: @5 μM; Cap=capsaicin; read-out: inhibition (as a percentage), (f) (human being) Cap
# Experimental: Furthermore, preference may be given to compounds according to the invention that cause a 50 percent displacement of capsaicin, which is present at a concentration of 100 nM, in a FLIPR assay with CHO K1 cells which were transfected with the human VR1 gene at a concentration of less than 2,000 nM, preferably less than 1,000 nM, particularly preferably less than 300 nM, most particularly preferably less than 100 nM, even more preferably less than 75 nM, additionally preferably less than 50 nM, most preferably less than 10 nM.
# In the process, the Ca^2+ influx is quantified in the FLIPR assay with the aid of a Ca^2+-sensitive dye (type Fluo-4, Molecular Probes Europe BV, Leiden, the Netherlands) in a fluorescent imaging plate reader (FLIPR, Molecular Devices, Sunnyvale, USA), as described hereinafter.
# Pharmacological Methods I. Functional Testing Carried Out on the Vanilloid Receptor 1 (VR1/TRPV1 Receptor) […]
# The number of cells in the suspension is set to 3×10^5 per mL and 150 μL of this suspension are in each case introduced into a recess in the cell culture plates coated as described hereinbefore. In the incubator the plates are left for two to three days at 37° C., 5% by volume of CO2 and 95% relative humidity. Subsequently, the cells are loaded with 2 μM of Fluo-4 and 0.01% by volume of Pluronic F127 (Molecular Probes Europe BV, Leiden, the Netherlands) in HBSS buffer (Hank's buffered saline solution, Gibco Invitrogen GmbH, Karlsruhe, Germany) for 30 min at 37° C., washed 3 times with HBSS buffer and after further incubation for 15 minutes at room temperature used for Ca^2+ measurement in a FLIPR assay. The Ca^2+-dependent fluorescence is in this case measured before and after the addition of substances (λex=488 nm, λem=540 nm). Quantification is carried out by measuring the highest fluorescence intensity (FC, fluorescence counts) over time.
# The FLIPR protocol consists of 2 substance additions. First the compounds to be tested (10 μM) are pipetted onto the cells and the Ca^2+ influx is compared with the control (capsaicin 10 μM). This provides the result in % activation based on the Ca^2+ signal after the addition of 10 μM of capsaicin (CP). After 5 minutes' incubation, 100 nM of capsaicin are applied and the Ca^2+ influx is also determined.
# Desensitising agonists and antagonists lead to suppression of the Ca^2+ influx. The % inhibition is calculated compared to the maximum achievable inhibition with 10 μM of capsazepine. Triple analyses (n=3) are carried out and repeated in at least 3 independent experiments (N=4). Starting from the percentage displacement caused by different concentrations of the compounds to be tested of general formula I, IC50 inhibitory concentrations which cause a 50-percent displacement of capsaicin were calculated. Ki values for the test substances were obtained by conversion by means of the Cheng-Prusoff equation (Cheng, Prusoff; Biochem. Pharmacol. 22, 3099-3108, 1973).
# The affinity of the compounds of to the invention for the vanilloid receptor 1 (VR1/TRPV1 receptor) was determined as described hereinbefore (pharmacological method I). The compounds of the invention display outstanding affinity to the VR1/TRPV1 receptor (Table 2). In Table 2 the abbreviations below have the following meanings: • Cap=capsaicin • AG=agonist • NE=no effect
# The value after the “@” symbol indicates the concentration at which the inhibition (as a percentage) was respectively determined.
# T1 sequence (Q8NER1 whole entry): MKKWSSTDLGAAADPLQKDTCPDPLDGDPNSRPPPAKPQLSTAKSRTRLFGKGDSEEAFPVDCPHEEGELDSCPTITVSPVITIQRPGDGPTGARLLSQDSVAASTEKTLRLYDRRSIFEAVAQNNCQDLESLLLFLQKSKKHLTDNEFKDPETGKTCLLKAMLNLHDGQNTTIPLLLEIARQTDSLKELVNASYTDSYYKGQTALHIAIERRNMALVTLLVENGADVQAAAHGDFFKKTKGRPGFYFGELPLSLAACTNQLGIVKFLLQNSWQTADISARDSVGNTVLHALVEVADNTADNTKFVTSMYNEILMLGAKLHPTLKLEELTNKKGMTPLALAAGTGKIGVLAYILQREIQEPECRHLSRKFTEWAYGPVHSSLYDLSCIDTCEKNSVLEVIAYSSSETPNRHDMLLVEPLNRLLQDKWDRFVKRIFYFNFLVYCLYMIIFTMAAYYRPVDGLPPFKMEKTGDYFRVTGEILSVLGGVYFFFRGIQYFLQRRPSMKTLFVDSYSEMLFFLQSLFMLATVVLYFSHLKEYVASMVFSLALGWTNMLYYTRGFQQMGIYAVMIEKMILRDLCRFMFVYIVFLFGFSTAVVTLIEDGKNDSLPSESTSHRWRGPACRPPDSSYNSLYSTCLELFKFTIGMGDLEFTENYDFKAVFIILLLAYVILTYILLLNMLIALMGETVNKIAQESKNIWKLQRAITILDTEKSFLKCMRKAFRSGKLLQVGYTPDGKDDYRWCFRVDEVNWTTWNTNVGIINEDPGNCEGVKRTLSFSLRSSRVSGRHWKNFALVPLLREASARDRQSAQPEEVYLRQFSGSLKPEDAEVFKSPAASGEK
row,Compound,inhibition at 5 µM [%]
1,"Cc1cc(NC(=O)NCc2ccc(C(F)(F)F)nc2N2CCC(C)CC2)c2cn[nH]c2c1 [Example 56, 1-(6-Methyl-1H-indazol-4-yl)-3-((2-(4-methylpiperidin-1-yl)-6-(trifluoromethyl)pyridin-3-yl)methyl)urea]",45

# Same assay, conditions: Cap=capsaicin
row,Compound,(f) (human being) Cap: effect in words (agonist / no effect)
1,"CC(=O)Nc1nc2cc(NC(=O)NCc3ccc(C(F)(F)F)nc3N3CCC(C)CC3)ccc2s1 [Example 31, N-(5-(3-((2-(4-methylpiperidin-1-yl)-6-(trifluoromethyl)pyridin-3-yl)methyl)ureido)benzo[d]thiazol-2-yl)acetamide]",AG
2,"CC1CCN(c2nc(C(F)(F)F)ccc2CNC(=O)Nc2ccnc3ccccc23)CC1 [Example 17, 1-((2-(4-Methylpiperidin-1-yl)-6-(trifluoromethyl)pyridin-3-yl)methyl)-3-(quinolin-4-yl)urea]",AG

# Same assay, conditions: Cap=capsaicin (100 nM); Ki from IC50 by Cheng-Prusoff equation; read-out: (f) Ki (human being) [nM] Cap
row,Compound,Ki [nM]
1,"Cc1cc2cccc(NC(=O)NCc3ccc(C(F)(F)F)nc3N3CCC(C)CC3)c2cn1 [Example 87, 1-(3-Methylisoquinolin-8-yl)-3-((2-(4-methylpiperidin-1-yl)-6-(trifluoromethyl)pyridin-3-yl)methyl)urea]",15
2,"CC1CCN(c2nc(C(F)(F)F)ccc2CNC(=O)Nc2cncc3ccccc23)CC1 [Example 18, 1-(Isoquinolin-4-yl)-3-((2-(4-methylpiperidin-1-yl)-6-(trifluoromethyl)pyridin-3-yl)methyl)urea]",2
3,"Cc1ccc2cc(NC(=O)NCc3ccc(C(F)(F)F)nc3N3CCC(C)CC3)ccc2n1 [Example 70, 1-((2-(4-Methylpiperidin-1-yl)-6-(trifluoromethyl)pyridin-3-yl)methyl)-3-(2-methylquinolin-6-yl)urea]",68
4,"CC1CCN(c2nc(C(F)(F)F)ccc2CNC(=O)Nc2cccc3scnc23)CC1 [Example 59, 1-(Benzo[d]thiazol-4-yl)-3-((2-(4-methylpiperidin-1-yl)-6-(trifluoromethyl)pyridin-3-yl)methyl)urea]",18
5,"CC1CCN(c2nc(C(F)(F)F)ccc2CNC(=O)Nc2cnc3[nH]ncc3c2)CC1 [Example 5, 1-((2-(4-methylpiperidin-1-yl)-6-(trifluoromethyl)pyridin-3-yl)methyl)-3-(1H-pyrazolo[3,4-b]pyridin-5-yl)urea]",21
6,"CCCCOc1nc(C(F)(F)F)ccc1CNC(=O)Nc1cccc2c1cnn2C [Example 47, 1-((2-Butoxy-6-(trifluoromethyl)pyridin-3-yl)methyl)-3-(1-methyl-1H-indazol-4-yl)urea]",3
7,"Cc1nc2cc(NC(=O)NCc3ccc(C(F)(F)F)nc3N3CCC(C)CC3)ccc2s1 [Example 30, 1-(2-Methylbenzo[d]thiazol-5-yl)-3-((2-(4-methylpiperidin-1-yl)-6-(trifluoromethyl)pyridin-3-yl)methyl)urea]",22
8,N-(2-(4-Methylpiperidin-1-yl)-4-(trifluoromethyl)benzyl)-2-(quinolin-3-yl)propanamide [Example 16],10
9,"Cn1ncc2c(NC(=O)NCc3ccc(C(F)(F)F)nc3OCC3CCC3)cccc21 [Example 48, 1-((2-(Cyclobutylmethoxy)-6-(trifluoromethyl)pyridin-3-yl)methyl)-3-(1-methyl-1H-indazol-4-yl)urea]",2
10,"CC1CCN(c2nc(C(F)(F)F)ccc2CNC(=O)Nc2ccc3scnc3c2)CC1 [Example 29, 1-(Benzo[d]thiazol-5-yl)-3-((2-(4-methylpiperidin-1-yl)-6-(trifluoromethyl)pyridin-3-yl)methyl)urea]",5
11,"Cc1cc2cc(NC(=O)NCc3ccc(C(F)(F)F)nc3N3CCC(C)CC3)ccc2[nH]1 [Example 24, 1-(2-Methyl-1H-indol-5-yl)-3-((2-(4-methylpiperidin-1-yl)-6-(trifluoromethyl)pyridin-3-yl)methyl)urea]",26
12,"CC1CCN(c2nc(C(F)(F)F)ccc2CNC(=O)C(C)c2cnc3ccccc3c2)CC1 (stereo not shown) [Example 14, N-((2-(4-Methylpiperidin-1-yl)-6-(trifluoromethyl)pyridin-3-yl)methyl)-2-(quinolin-3-yl)propanamide]",44
13,"O=C(NCc1ccc(C(F)(F)F)nc1SC1CCCCC1)Nc1ccc2cccnc2c1 [Example 71, 1-((2-(Cyclohexylthio)-6-(trifluoromethyl)pyridin-3-yl)methyl)-3-(quinolin-7-yl)urea]",5
14,"COc1nc(Cl)cc2c(NC(=O)NCc3ccc(C(F)(F)F)nc3N3CCC(C)CC3)cccc12 [Example 82, 1-(3-Chloro-1-methoxyisoquinolin-5-yl)-3-((2-(4-methylpiperidin-1-yl)-6-(trifluoromethyl)pyridin-3-yl)methyl)urea]",1
15,"CC1CCN(c2nc(C(F)(F)F)ccc2CNC(=O)Nc2cccc3[nH]ccc23)CC1 [Example 38, 1-(1H-Indol-4-yl)-3-((2-(4-methylpiperidin-1-yl)-6-(trifluoromethyl)pyridin-3-yl)methyl)urea]",1
16,"CC1CCN(c2nc(C(F)(F)F)ccc2CNC(=O)Nc2cccc3c2ccn3S(C)(=O)=O)CC1 [Example 42, 1-((2-(4-Methylpiperidin-1-yl)-6-(trifluoromethyl)pyridin-3-yl)methyl)-3-(1-(methylsulfonyl)-1H-indol-4-yl)urea]",2
17,"CC1CCN(c2nc(C(F)(F)F)ccc2CNC(=O)Nc2ccc3[nH]ccc3c2)CC1 [Example 23, 1-(1H-Indol-5-yl)-3-((2-(4-methylpiperidin-1-yl)-6-(trifluoromethyl)pyridin-3-yl)methyl)urea]",13
18,"CC1CCN(c2nc(C(F)(F)F)ccc2CNC(=O)Nc2ccc3cc[nH]c3c2)CC1 [Example 22, 1-(1H-Indol-6-yl)-3-((2-(4-methylpiperidin-1-yl)-6-(trifluoromethyl)pyridin-3-yl)methyl)urea]",24
19,"COc1nccc2c(NC(=O)NCc3ccc(C(F)(F)F)nc3N3CCC(C)CC3)cccc12 [Example 80, 1-(1-Methoxyisoquinolin-5-yl)-3-((2-(4-methylpiperidin-1-yl)-6-(trifluoromethyl)pyridin-3-yl)methyl)urea]",8
20,"CN(C)C1(c2ccccc2)CCN(c2nc(C(F)(F)F)ccc2CNC(=O)Nc2cccc3cnccc23)CC1 [Example 77, 1-((2-(4-(Dimethylamino)-4-phenylpiperidin-1-yl)-6-(trifluoromethyl)pyridin-3-yl)methyl)-3-(isoquinolin-5-yl)urea]",4
21,"CC1CCN(c2nc(C(F)(F)F)ccc2CNC(=O)Nc2cc(Cl)cc3[nH]ncc23)CC1 [Example 55, 1-(6-Chloro-1H-indazol-4-yl)-3-((2-(4-methylpiperidin-1-yl)-6-(trifluoromethyl)pyridin-3-yl)methyl)urea]",4
22,"CC1CCN(c2nc(C(F)(F)F)ccc2CNC(=O)Nc2cccc3c2ccn3C)CC1 [Example 40, 1-(1-Methyl-1H-indol-4-yl)-3-((2-(4-methylpiperidin-1-yl)-6-(trifluoromethyl)pyridin-3-yl)methyl)urea]",5
23,"CC(=O)n1ncc2c(NC(=O)NCc3ccc(C(F)(F)F)nc3N3CCC(C)CC3)cccc21 [Example 49, 1-(1-Acetyl-1H-indazol-4-yl)-3-((2-(4-methylpiperidin-1-yl)-6-(trifluoromethyl)pyridin-3-yl)methyl)urea]",13
24,"CC1CCN(c2cc(C(C)(C)C)ccc2CNC(=O)Nc2cccc3ncccc23)CC1 [Example 62, 1-(4-Tert-butyl-2-(4-methylpiperidin-1-yl)benzyl)-3-(quinolin-5-yl)urea]",1
25,"CC1CCN(c2nc(C(F)(F)F)ccc2CNC(=O)Nc2cccc3[nH]c(C(C)(C)C)cc23)CC1 [Example 43, 1-(2-Tert-butyl-1H-indol-4-yl)-3-((2-(4-methylpiperidin-1-yl)-6-(trifluoromethyl)pyridin-3-yl)methyl)urea]",8
